Measurements: EP0022634A1, “Acylated indole derivatives, processes for their preparation and pharmaceutical compositions and drugs comprising them” (TEIJIN LIMITED, priority 1979, dated 1981)
≈ marks a conversion by molar mass, not a printed value. Like-named read-outs stand apart in the source and are kept apart here.

Legend:
[1] = test system: platelet aggregation; assay: in vitro platelet aggregation inhibiting activity (sodium arachidonate as aggregating agent); assay type: cell-based; conditions: guinea pigs PRP, final concentration 0.1 millimole, minimum final concentration whose inhibiting rate exceeded 50 %
Protocol: The platelet aggregation inhibiting activities in vitro of test drugs including the acylated indole derivatives of this invention were assayed using guinea pigs PRP.
As an aggregating agent, sodium arachidonate having a final concentration of 0.1 millimole was used.
The citrated blood was centrifuged at 1000 rpm for 10 minutes at room temperature, and the supernatant liquid (PRP) was separated.
The resulting PRP was stored at room temperature, and used as early as possible. PRP stored for more than 4 hours was not used.
A compound having a free carboxylic acid as a residue, such as Indomethacin and Ibprofen, was dissolved in O.lM NaHC03 to provide a sodium salt solution having a concentration of 10 mg/ml. The solution was similarly diluted with physiological saline to prepare a solution of a test drug.
The solution was diluted with physiological saline to form a 1mM solution which was used in the test.
50 µℓ of physiological saline and 50 µℓ of the aggregating agent solution were added to 400 µℓ of PRP which had been warmed in a cuvette at 37°C in an aggregometer to aggregate the platelet. The aggregation curve was recorded for 3 minutes by an aggregometer (a product of Bryston Company). The maximum degree of aggregation in this platelet aggregation was defined as the maximum degree of aggregation in the blank.
Then, 50 µℓ of a 1mM solution of sodium arachidonate was added, and the platelet aggregation curve was recorded in the same way as in (1) above. From the curve, the maximum degree of aggregation was calculated, and the inhibiting rate was calculated in accordance with the following equation. Maximum degree of aggregation Inhibiting 100 - in the Ibprofen-added system 100 rate (%) Maximum degree of aggregation in the blank
If these inhibiting rates are not attained, the concentration of the solution of sodium arachidonate is not suitable, and therefore, its concentration should be re-adjusted, and the test shall be performed again.
50 µℓ of the test compound solution was added to 400 µℓ of PRP, and the mixture was pre-incubated in the same way as in(2) above. Then, 50 µℓ of the solution of sodium arachidonate having its concentration adjusted in (2) was added, and the aggregation curve was recorded for 3 minutes. The maximum degree of aggregation of platelet within this period was measured, and the rate of inhibition was calculated from the following equation. […] Maximum degree of aggregation Inhibiting _ 100 - in the drug-added system x 100 rate (%) Maximum degree of aggregation in the blank
For details of the in vitro platelet aggregation inhibiting test, see H. M. Davis, J. Phyllis, K. Paul and W. Terry: Thromb. […] Haemos.

[2] = test system: platelet aggregation; assay: extra vivo platelet aggregation inhibiting activity after oral administration, sodium arachidonate as aggregating agent; assay type: in vivo, guinea pigs; conditions: Cavia porcellus, 0.03 mM sodium arachidonate; for inhibition at 10 mg/kg: oral dosage 10 mg/kg; for inhibition at 1 mg/kg: oral dosage 1 mg/kg
Protocol: (§1) The platelet aggregation inhibiting activities extra vivo of drugs sampled at random were examined using guinea pigs.
(§2) The drugs were used dissolved in propylene glycol to a concentration of 1 mg/ml (when the dosage was 1 mg/kg), 10 mg/ml (when the dosage was 10 mg/kg), and 30 mg/ml (when the dosage was 30 mg/kg). The drugs were administered orally to male Hartley guinea pigs (three in a group) having a body weight of 300 to 350 g. Propylene glycol was administered to a control group.
(§3) One hour, or 4 hours after the administration, citrated blood was taken out from the subject by cardiac puncture.
(§4) The guinea pigs were caused to fast overnight before use.
(§5) The inhibiting rate of the test drugs was measured as follows: • 450 µℓ of PRP was put into a cuvette of an aggregometer, and then 50 µℓ of the aggregating agent was added. The aggregation curve was recorded for 3 minutes, and the maximum degree of aggregation was measured. As a blank, the maximum degree of aggregation of PRP of the group of guinea pigs to which propylene glycol had been administered was measured. The rate of inhibition was calculated from the following equation. [formula]
(§6) As the aggregating agent, 0.03 mM (final concentration sodium arachidonate and 5 µg/ml (final concentration) collagen floating solution were used.
For details of the extra vivo platelet aggregation inhibiting test, see Davis. H. M., Phyllis, J., Paul, K and Terry, W.: Thromb. […] Haemos.

[3] = test system: platelet aggregation; assay: extra vivo platelet aggregation inhibiting activity after oral administration, collagen as aggregating agent; assay type: in vivo, guinea pigs; conditions: Cavia porcellus
Protocol: The collagent floating solution made by Hormone Company of west Germany was diluted with physiological saline to a concentration of 100 µg/ml for use in the test.
as §1, §2, §3, §4, §5, §6
For details of the extra vivo platelet aggregation inhibiting test, see Davis. H. M., Phyllis, J., Paul, K and Terry, W.: Thromb. Res. 11, 217-226 (1977) and Anderson R. E. and Foulks J. G.: Thromb. Haemos. 36, 343-359 (1976).

[4] = Cavia porcellus, Platelet, read-out: IC50
[5] = blood taken 1 hour after administration, read-out: Rate of inhibition of platelet aggregation, Sodium arachidonate, After 1 hour
[6] = blood taken 4 hours after administration, read-out: Rate of inhibition of platelet aggregation, Sodium arachidonate, After 4 hours
[7] = po, 1 h, read-out: Rate of inhibition of platelet aggregation, Collagen, After 1 hour
[8] = po, 4 h, read-out: Rate of inhibition of platelet aggregation, Collagen, After 4 hours

Structure (SMILES) | IC50 [1, 4] | inhibition at 10 mg/kg [2, 5] | inhibition at 10 mg/kg [2, 6] | inhibition at 10 mg/kg [3, 7] | inhibition at 10 mg/kg [3, 8] | also measured
COC[C@H](C)n1c(C)c(C(=O)c2ccccc2)c2ccccc21 [(347), 3-benzoyl-1-[1-methoxy-2(S)-propyl)-2-methylindole] | 0.075 µg/mL (≈ 0.244 µM) |  |  |  |  | 
CC(=O)C(C)n1c(C)c(C(=O)c2ccccc2)c2ccccc21 (stereo not drawn) [(800), 3-Benzoyl-2-methyl-l-(3-oxo-2-butyl)indole] | 0.05 to 0.1 µg/mL (≈ 0.164 to 0.327 µM) | 100% | 66.7% | 100% | 48.4% | 
Cc1c(C(=O)c2ccccc2)c2ccccc2n1[C@@H](C)CO [(136), 3-Benzoyl-1-(1-hydroxy-2(S)-propyl]-2-methylindole] | 0.05 µg/mL (≈ 0.17 µM) |  |  |  |  | 
COCCC(C)n1c(C)c(C(=O)c2ccccc2)c2ccccc21 (stereo not drawn) [(306), 3-Benzoyl-1-(4-methoxy-2-butyl)-2-methylindole] | 0.25 µg/mL (≈ 0.778 µM) | 100% | 100% | 100% | 100% | 
Cc1[nH]c2ccccc2c1C(=O)c1ccccc1 [Comparison 2, reference compound] | 5 µg/mL (≈ 21.3 µM) |  |  |  |  | 
Cc1c(C(=O)c2ccccc2)c2ccccc2n1C(C)C(=O)O (stereo not drawn) [Comparison 1, reference compound] | 50 µg/mL (≈ 163 µM) |  |  |  |  | 
Cc1c(C(=O)c2ccccc2)c2ccccc2n1C(C)CCSc1ccccn1 (stereo not drawn) [(414), 3-Benzoyl-2-methyl-l-(4-(2-pyridylthio)-2-butyl]indole] |  | 100% | 100% |  |  | 
Cc1c(C(=O)c2ccccc2)c2ccccc2n1C(C)CCS (stereo not drawn) [(423), 3-Benzoyl-1-(4-mercapto-2-butyl)-2-methylindole] |  | 100% | 100% | 100% | 100% | 
CSCC(C)n1c(C)c(C(=O)c2ccccc2)c2ccccc21 (stereo not drawn) [(402), 3-Benzoyl-2-methyl-1-(1-methylthio-2-propyl)-indole] | 0.075 µg/mL (≈ 0.232 µM) |  |  |  |  | 
COCCn1c(C)c(C(=O)c2ccccc2)c2ccccc21 [Comparison 4, reference compound] |  | 45.5% | 7.1% | 38% | 7.6% | 
COC[C@@H](C)n1c(C)c(C(=O)c2ccccc2)c2ccccc21 [(346), 3-Benzoyl-1-[1-methoxy-2(R)-propyl]-2-methylindole] | 0.05 µg/mL (≈ 0.163 µM) |  |  |  |  | 
COCC(C)n1c(C)c(C(=O)c2cccs2)c2ccccc21 (stereo not drawn) [(315), 1-(1-Methoxy-2-propyl)-2-methyl-3-thenoylindole] |  |  |  |  |  | IC50 [1]: 0.01 to 0.1 µg/mL
Cc1[nH]c2ccccc2c1C(=O)c1ccc(Cl)cc1 [Comparison 6, reference compound] |  | 12.3% | 6% |  |  | inhibition at 10 mg/kg ([3]; oral dosage 10 mg/kg, 5 µg/ml collagen floating solution, blood taken 1 hour after administration, read-out: Rate of inhibition of platelet aggregation, Collagen, After 1 hour): 36%; inhibition at 10 mg/kg ([3]; oral dosage 10 mg/kg, 5 µg/ml collagen floating solution, blood taken 4 hours after administration, read-out: Rate of inhibition of platelet aggregation, Collagen, After 4 hours): 28.9%
CC(=O)OCC(C)n1c(C)c(C(=O)c2ccccc2)c2ccccc21 (stereo not drawn) [(200), 1-(1-Acetoxy-2-propyl)-3-benzoyl-2-methylindole] | 0.075 µg/mL (≈ 0.224 µM) |  |  |  |  | inhibition at 1 mg/kg [2, 5]: 90%; inhibition at 1 mg/kg [2, 6]: 91.8%
CCSCC(CC)n1c(C)c(C(=O)c2ccccc2)c2ccccc21 (stereo not drawn) [(417), 3-Benzoyl-1-(1-ethylthio-2-butyl)-2-methylindole] |  | 100% | 37% | 100% | 100% | 
Cc1c(C(=O)c2ccccc2)c2ccccc2n1C(C)C[S+]([O-])c1ccccc1 (stereo not drawn) [(501), 1-(1-Benzenesulfinyl-2-propyl)-3-benzoyl-2-methylindole] |  | 100% | 100% | 100% | 100% | 
CCC(C)n1c(C)c(C(=O)c2ccccc2)c2ccccc21 (stereo not drawn) [(701), 3-Benzoyl-1-(2-butyl)-2-methylindole] |  | 100% | 100% |  |  | 
Cc1c(C(=O)c2ccccc2)c2ccccc2n1[C@H](C)CO [(135), 3-Benzoyl-1-[1-hydroxy-2(R)-propyl]-2-methylindole] | 0.025 µg/mL (≈ 0.0852 µM) |  |  |  |  | 
